Reference: US9346829B2, “5-HT3 receptor antagonists” (Takeda Phamaceutical Company Limited, priority 2012, dated 2016)
Where a name gives a salt, the structure may show the parent alone. Read-outs that look alike come from different tables or passages of the source.

Experiments:
5-HT3a receptor = 5-HT3a receptor (Homo sapiens (Human), UniProt P46098); test: Inhibition of Ca flux activity of 5-HT3 in vitro assay; format: cell-based
Experimental: The 5-HT3 antagonist activity of the compounds of the invention was determined by measuring the ability of the compounds to inhibit the calcium flux activity of […] receptor expressed in HEK-293T cells. HEK-293T cells were transfected with the 5-HT3a expression construct using Xtreme Gene 9 (Roche) in 150 mm tissue culture treated plates and incubated for 24 hours at 37° C. Cells were then split and plated at a density of 60K cells/well in poly-lysine coated, black 96-well plates with clear bottoms (BD BioSciences) and incubated overnight at 37° C. Growth media was removed and cells loaded with 200 uL calcium indicator dye in HBSS containing 20 mM HEPES (Calcium 5 Assay kit, Molecular Devices) and incubated at 37° C. for 1 hour. While cells were incubating, the 10× antagonist and agonist/antagonist addition plates were made. For 10× antagonist plate: half log serial dilutions (final concentrations range from 10^−7 through 10^−10 with the bottom well a negative, no ligand control) were made from test compounds in DMSO at a 1000× concentration and then diluted to 10× in HBSS/20 mM HEPES. For addition plate: 5HT was diluted to 100× in HBSS/20 mM HEPES (final concentration in the assay—216 nM) and 15 uL was added to each well of the addition plate, 15 uL of 10× compound was also added to the addition plate, and finally 120 uL of HBSS/20 mM HEPES (for a total of 150 uL). Cells were then removed from the incubator and equilibrated to room temperature for 10 minutes, then 22.5 uL of 10× test compounds were added in triplicate to the plates and incubated at room temperature for 10 minutes (Tropisetron was used as a positive control in every assay). Test plate and addition plate were loaded into the FlexStation III (Molecular Devices), and using the fluidics, 22.5 uL compound additions were made (at t=˜17 seconds), and fluorescence was measured for 90 seconds, reading every 2.2 seconds. Data sets were analyzed as max minus min using Software Max Pro (Molecular Devices). IC50 curves were generated using non-linear regression in GraphPad Prism.

nicotinic α-7 receptor = nicotinic α-7 receptor (Homo sapiens (Human), UniProt P36544); test: Nicotinic α-7 receptor binding assay; conditions: binding at the nicotinic α-7 receptor, carried out at Eurofins Pharma Services
Experimental: The evaluation of binding at the nicotinic α-7 receptor was carried out at Eurofins Pharma Services.

[1] = approximate IC50, calcium flux, 5-HT3a expressed in HEK-293T cells, 5HT 216 nM, read-out: IC50

Sequence of 5-HT3a receptor (P46098 24-478): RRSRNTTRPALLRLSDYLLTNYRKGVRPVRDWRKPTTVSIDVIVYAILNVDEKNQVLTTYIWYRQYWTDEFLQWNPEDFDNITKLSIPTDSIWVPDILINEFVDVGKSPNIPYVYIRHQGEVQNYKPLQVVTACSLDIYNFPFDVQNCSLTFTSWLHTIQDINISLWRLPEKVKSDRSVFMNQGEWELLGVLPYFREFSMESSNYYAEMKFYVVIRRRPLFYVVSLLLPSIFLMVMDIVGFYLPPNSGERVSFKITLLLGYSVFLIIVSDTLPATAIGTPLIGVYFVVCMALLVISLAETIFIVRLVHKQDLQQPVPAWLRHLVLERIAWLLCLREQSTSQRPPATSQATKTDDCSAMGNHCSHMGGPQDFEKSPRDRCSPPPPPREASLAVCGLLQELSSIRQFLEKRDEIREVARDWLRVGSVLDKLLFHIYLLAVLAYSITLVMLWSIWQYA
Sequence of nicotinic α-7 receptor (P36544 23-502): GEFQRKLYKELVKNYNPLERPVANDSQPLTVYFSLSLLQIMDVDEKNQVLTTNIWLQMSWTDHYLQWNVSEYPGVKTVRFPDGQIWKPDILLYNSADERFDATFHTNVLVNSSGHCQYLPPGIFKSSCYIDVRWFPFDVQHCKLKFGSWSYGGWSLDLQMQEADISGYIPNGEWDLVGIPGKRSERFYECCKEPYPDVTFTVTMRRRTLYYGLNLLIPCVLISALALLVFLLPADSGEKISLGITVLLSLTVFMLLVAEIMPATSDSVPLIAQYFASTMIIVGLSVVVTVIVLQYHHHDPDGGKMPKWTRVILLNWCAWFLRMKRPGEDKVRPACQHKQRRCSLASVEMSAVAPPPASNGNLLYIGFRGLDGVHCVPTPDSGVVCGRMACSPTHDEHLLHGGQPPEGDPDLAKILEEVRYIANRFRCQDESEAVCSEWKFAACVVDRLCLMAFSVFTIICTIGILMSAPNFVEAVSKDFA

SMILES | IC50 (5-HT3a receptor) | IC50 (5-HT3a receptor; [1]) | IC50 (nicotinic α-7 receptor)
CN1[C@@H]2COC[C@H]1C[C@@H](NC(=O)c1cn(-c3cnn(C)c3)c3ccccc13)C2 [Compound 15, 1-(1-methyl-1H-pyrazol-4-yl)-N-((1R,5S,7S)-9-methyl-3-oxa-9-azabicyclo[3.3.1]nonan-7-yl)-1H-indole-3-carboxamide, 2,2,2-trifluoroacetic acid salt] | 3.48 nM | 0.662 nM | > 10000 nM
CN1C2COCC1CC(OC(=O)c1c[nH]c3ccccc13)C2 [Reference 7, (1R,5S,7S)-9-methyl-3-oxa-9-azabicyclo[3.3.1]nonan-7-yl 1H-indole-3-carboxylate, reference compound] | 89.1 nM | – | 1660 nM
CN1[C@@H]2COC[C@H]1C[C@@H](NC(=O)c1cn(-c3ccccn3)c3ncccc13)C2 [Compound 10, N-(1R,5S,7S)-9-methyl-3-oxa-9-azabicyclo[3.3.1]nonan-7-yl)-1-(pyridin-2-yl)-1H-pyrrolo[2,3-b]pyridine-3-carboxamide, 2,2,2-trifluoroacetic acid salt] | – | 0.65 nM | –
Cn1ccc(-n2cc(C(=O)O[C@H]3C[C@H]4COC[C@@H](C3)N4)c3ccccc32)n1 [Compound 16, (1R,5S,7S)-3-oxa-9-azabicyclo[3.3.1]nonan-7-yl 1-(1-methyl-1H-pyrazol-3-yl)-1H-indole-3-carboxylate, 2,2,2-trifluoroacetic acid salt] | – | 2.5 nM | –
